According to patent US12616716B2, “Wound healing dressings and formulations and methods of use thereof” (Polaroid IP B.V., priority 2023, dated 2026):
≈ marks a conversion by molar mass, not a printed value.

What was measured:
Escherichia coli EC25922 = experiment: MIC, broth microdilution in MH broth with resazurin; format: cell-based; settings: Escherichia coli, EC25922, read-out: MIC Concentration
[1] = test system: Staphylococcus aureus NRS384; experiment: Murine wound infection model, in vivo antimicrobial efficacy (bacterial CFU/wound); settings: Study 2 pilot; daily application; 24 hrs and 72 hrs post-seeding
[2] = test system: Staphylococcus aureus ATCC 29213; experiment: MIC, broth microdilution in MH broth with resazurin; format: cell-based; settings: Staphylococcus aureus, ATCC29213, read-out: MIC Concentration
[3] = test system: Enterococcus faecalis EF19433; experiment: as above; format: cell-based; settings: Enterococcus faecalis, EF19433, read-out: MIC Concentration
[4] = test system: Klebsiella pneumoniae KL1; experiment: as above; format: cell-based; settings: Klebsiella pneumoniae, KL1, read-out: MIC Concentration
[5] = test system: Staphylococcus aureus NRS384; experiment: as above; format: cell-based; settings: Staphylococcus aureus, NRS384, read-out: MIC Concentration
[6] = test system: Staphylococcus aureus MR1; experiment: as above; format: cell-based; settings: Staphylococcus aureus, MR1, read-out: MIC Concentration
S. aureus NRS 384 = experiment: Mouse Staphylococcus aureus-induced wound infection model, bacteria load in wound site; settings: for Ig(CFU/wound site) 12 h p.i. / ΔIg(CFU/wound site) vs 12 h infection control / Ig(CFU/wound site) 24 h p.i. / ΔIg(CFU/wound site) vs 24 h infection control / Ig (CFU/wound site) / ΔIg(CFU/wound site) vs infection control: twice a day
[7] = test system: Pseudomonas aeruginosa 27853; experiment: MIC, broth microdilution in MH broth with resazurin; format: cell-based; settings: Pseudomonas aeruginosa, 27853, read-out: MIC Concentration
[8] = 1 mg/ml, 10 μL/wound site, 10 μg/wound site, 12 h p.i.
[9] = 1 mg/ml, 10 μL/wound site, 10 μg/wound site, 24 h p.i.
[10] = Study II, 1 mg/ml, 10 μL/wound site
[11] = Study III, 48 h p.i., 1 mg/ml, 10 μL/wound site
[12] = Study III, 72 h p.i., 1 mg/ml, 10 μL/wound site
[13] = Study V, 0.2 mg/ml, 50 μL/wound site, 24 h p.i.
[14] = Study V, 0.2 mg/ml, 50 μL/wound site, 72 h p.i.

## CN[C@H](CC(C)C)C(=O)N[C@H]1C(=O)N[C@@H](CC(N)=O)C(=O)N[C@H]2C(=O)N[C@H]3C(=O)N[C@H](C(=O)N[C@H](C(=O)O)c4cc(O)cc(O)c4-c4cc3ccc4O)[C@H](O)c3ccc(c(Cl)c3)Oc3cc2cc(c3O[C@@H]2O[C@H](CO)[C@@H](O)[C@H](O)[C@H]2O[C@H]2C[C@](C)(N)[C@H](O)[C@H](C)O2)Oc2ccc(cc2Cl)[C@H]1O [Vancomycin]
Escherichia coli EC25922
  MIC: 0.63 µM (≈ 0.913 µg/mL)
[1]
  log reduction in wound S. aureus: 1 log
[2]
  MIC: 0.04 µM (≈ 0.058 µg/mL)
[3]
  MIC: 5 µM (≈ 7.25 µg/mL)
[4]
  MIC: 0.63 µM (≈ 0.913 µg/mL)
[5]
  MIC: 0.04 µM (≈ 0.058 µg/mL)
[6]
  MIC: 0.04 µM (≈ 0.058 µg/mL)
S. aureus NRS 384; [8]
  Ig(CFU/wound site) 12 h p.i.: 8.02 ± 0.35 Ig(CFU/wound site)
  ΔIg(CFU/wound site) vs 12 h infection control: −0.57 ± 0.35 Ig(CFU/wound site)
S. aureus NRS 384; [9]
  Ig(CFU/wound site) 24 h p.i.: 7.29 ± 0.32 Ig(CFU/wound site)
  ΔIg(CFU/wound site) vs 24 h infection control: −1.44 ± 0.32 Ig(CFU/wound site)
S. aureus NRS 384; Study I, 10 μL/wound site
  Ig(CFU/wound site) 12 h p.i.: 8.47 ± 0.22 Ig(CFU/wound site)
  Ig(CFU/wound site) 24 h p.i.: 7.67 ± 0.60 Ig(CFU/wound site)
  ΔIg(CFU/wound site) vs 12 h infection control: −0.11 ± 0.22 Ig(CFU/wound site)
  ΔIg(CFU/wound site) vs 24 h infection control: −1.12 ± 0.60 Ig(CFU/wound site)
S. aureus NRS 384; Study I, after twice administrations
  bacterial load decreased by, compared with 24 h infection control group: 1.12 Ig CFU/wound site
S. aureus NRS 384; Study I, single dose at 10 μg
  effect of a single dose at 12-hour post infection: not manifest
S. aureus NRS 384; [10]
  Ig(CFU/wound site) 12 h p.i.: 7.83 ± 0.44 Ig(CFU/wound site)
  Ig(CFU/wound site) 24 h p.i.: 7.50 ± 0.54 Ig(CFU/wound site)
  ΔIg(CFU/wound site) vs 12 h infection control: −0.76 ± 0.44 Ig(CFU/wound site)
  ΔIg(CFU/wound site) vs 24 h infection control: −1.36 ± 0.54 Ig(CFU/wound site)
S. aureus NRS 384; Study III, 24 h p.i., 1 mg/ml, 10 μL/wound site, 10 μg/wound site, inoculum 2.50E+06 CFU/wound site
  Ig (CFU/wound site): 7.67 ± 0.24 Ig (CFU/wound site)
S. aureus NRS 384; Study III, 24 h p.i., 1 mg/ml, 10 μL/wound site
  ΔIg(CFU/wound site) vs infection control: −1.11 ± 0.24 Ig(CFU/wound site)
S. aureus NRS 384; Study III, 24 h p.i., 1 mg/ml, 50 μL/wound site, 50 μg/wound site
  Ig (CFU/wound site): 4.37 ± 0.26 Ig (CFU/wound site)
S. aureus NRS 384; Study III, 24 h p.i., 1 mg/ml, 50 μL/wound site
  ΔIg(CFU/wound site) vs infection control: −4.40 ± 0.26 Ig(CFU/wound site)
S. aureus NRS 384; [11]
  Ig (CFU/wound site): 5.29 ± 0.77 Ig (CFU/wound site)
  ΔIg(CFU/wound site) vs infection control: −3.28 ± 0.77 Ig(CFU/wound site)
S. aureus NRS 384; [12]
  Ig (CFU/wound site): 5.12 ± 0.65 Ig (CFU/wound site)
  ΔIg(CFU/wound site) vs infection control: −2.83 ± 0.65 Ig(CFU/wound site)
S. aureus NRS 384; [13]
  Ig (CFU/wound site): 6.07 ± 0.52 Ig(CFU/wound site)
  ΔIg(CFU/wound site) vs infection control: −2.39 ± 0.52 Ig(CFU/wound site)
S. aureus NRS 384; [14]
  Ig (CFU/wound site): 5.05 ± 0.20 Ig(CFU/wound site)
  ΔIg(CFU/wound site) vs infection control: −3.22 ± 0.20 Ig(CFU/wound site)
[7]
  MIC: 5 µM (≈ 7.25 µg/mL)
